We go through one compound from US9006185B2, “Use of cell-permeable peptide inhibitors of the JNK signal transduction pathway for the treatment of various diseases” (Xigen Inflammation Ltd., priority 2008, dated 2015).

What all share (assay type): cell-based
Series [1] deals with endogenous JNK in HepG2 cells. Briefly: AlphaScreen, endogenous IL-1 dependent JNK activity in HepG2 cells. Conditions: FIG. 3 panel d. The procedure: HepG2 cells were seeded at 3,000 cells/well the day prior the experiment. Then, increasing concentrations of either interleukin-1 [IL-1 beta v)] or tumor necrosis factor [TNFalpha (•)] (a) were added to activate JNK for 30 minutes. Cells were lysed in 20 mM Hepes, 0.5% Tween pH 7.4 and processed for AlphaScreen JNK. (b) Z′ for the JNK activity induced by 10 ng/ml IL-1 and measured in 384 wells/plate (n=96). (c) Inhibition of endogenous IL-1 beta-induced JNK activity with chemical JNK inhibitors [staurosporin (°) and SP600125 (•)]. (d) Effect of peptidic inhibitors L-TAT-IB1(s) according to SEQ ID NO: 9 [here abbreviated as L-JNKi (ν)) and D-TAT-IB1(s) according to SEQ ID NO: 11 (here abbreviated as D-JNKi (♦)) and JBDs (•) (corresponds to L-JNKI without the TAT sequence)] on IL-1 dependent JNK activity. All panels are representative of three independent experiments (n=3). […]
Principle: AlphaScreen is a non-radioactive bead-based technology used to study biomolecular interactions in a microplate format. The acronym ALPHA stands for Amplified Luminescence Proximity Homogenous Assay. […]
Kinase reagents (B-GST-cJun, anti P-cJun antibody and active JNK3) were first diluted in kinase buffer (20 mM Tris-HCl pH 7.6, 10 mM MgCl2, 1 mM DTT, 100 μM Na3VO4, 0.01% Tween-20) and added to wells (15 μl). […] AlphaScreen signal was analyzed directly on the Fusion or En Vision apparatus.
A general note: In Alpha technology, singlet oxygen from a donor bead excites a nearby acceptor bead.

Series [2] deals with Primary cultured macrophages. The procedure:
FIG. 24 Primary cultured macrophages were incubated with XG-102 (SEQ ID NO: 11) and extensively washed.

The next series has as its system Jurkat cells. Briefly: PMA & ionomycin-induced cytokine production in Jurkat cells.

Structures are written as SMILES.

With `CC(C)C[C@@H](NC(=O)[C@@H](Cc1ccccc1)NC(=O)[C@H]1CCCN1C(=O)[C@@H](CCC(N)=O)NC(=O)[C@H](NC(=O)[C@H]1CCCN1C(=O)[C@@H](CCCNC(=N)N)NC(=O)[C@@H](CO)NC(=O)[C@@H](CCC(N)=O)NC(=O)[C@H](N)CC(=O)O)C(C)C)C(=O)N[C@H](CC(N)=O)C(=O)N[C@H](CC(C)C)C(=O)N[C@@H](C(=O)N[C@@H](C(=O)N1CCC[C@@H]1C(=O)N[C@H](CCCNC(=N)N)C(=O)N[C@H](CCCCN)C(=O)N1CCC[C@@H]1C(=O)N[C@H](CCCNC(=N)N)C(=O)N1CCC[C@@H]1C(=O)N1CCC[C@@H]1C(=O)N[C@H](CCCNC(=N)N)C(=O)N[C@H](CCCNC(=N)N)C(=O)N[C@H](CCCNC(=N)N)C(=O)N[C@H](CCC(N)=O)C(=O)N[C@H](CCCNC(=N)N)C(=O)N[C@H](CCCNC(=N)N)C(=O)N[C@H](CCCCN)C(=O)N[C@H](CCCCN)C(=O)N[C@H](CCCNC(=N)N)C(=O)NCC(=O)O)[C@H](C)O)[C@H](C)O` [XG-102], in series [1], the “inhibition of IL-1 dependent endogenous JNK activity” value is listed as “effectively inhibits JNK activity, even better than L-TAT-IB1(s)”. Further, the “incorporation into primary macrophages” value in series [2] is reported as “strongly incorporated into primary macrophages”. For the same compound, the “PMA & ionomycin-induced IFNg, IL-6 and IL-2 production” value with Jurkat cells is “inhibits cytokine release in both myeloid and lymphoid cell lines”.
